According to PMC10419174, “WR1065 conjugated to thiol-PEG polymers as novel anticancer prodrugs: broad spectrum efficacy, synergism, and drug resistance reversal” (Frontiers in Oncology, 2023):
Values joined by “and” are separate entries in the source; they are usually repeats but may differ in a detail not shown here. Equal values may be shown once. Read-outs that look alike come from different tables or passages of the source.

Columns and labels:
[1] = test system: Mammary gland MDA-MB-231 cells; assay: CyQUANT-NF proliferation assay, 48-h drug treatment; assay type: cell-based
Method: Since the BRG prodrugs are composed of WR1065 as one of the major constituents, assays were conducted to determine if factors reported to modulate the activity of amino acid and polyamine plasma membrane transport systems impacted the efficacy of 4SP65 or 1LP65 in selected cancer cell lines. HL60 cells were exposed to 4SP65 with up to 0.5 mM NaCl, MBA-MD-231 cells were tested in the presence and absence of medium supplemented with estradiol plus insulin (in the BulletKit™ for growth supplements for NHMECs), HCC38 cells were exposed to 4SP65 with and without 10 µM insulin added to the growth medium, and multiple cells lines were pretreated for 24 h with 1 mM DFMO prior to starting exposures to 4SP65.
(§1) The percentage of growth inhibition was calculated as follows: […]

A549 NSCLC cells = assay: cells
Method: as §1

Ovary SKOV3 cells = assay: cells
Method: as §1

Ovary TOV21G cells = assay: cells
Method: as §1

Prostate LNCaP cells = assay: cells
Method: as §1

Prostate PC3 cells = assay: cells
Method: as §1

human cancer cell lines = assay: cells
Method: as §1

[2] = 48-h treatment, amifostine ND = not definable up to 500 µM
[3] = pretreated with 1 mM DFMO for 24 h, then 48 h
[4] = without DFMO pretreatment, 48 h
[5] = read-out: LC50, 48-h treatment, amifostine ND = not definable up to 500 µM
[6] = 1LP65: average across 11 cell lines, 48 h
[7] = 15 cell lines for 4SP65, 11 for 1LP65
[8] = average of HCC38, MDA-MB-231, H1975, DU145, PC3
[9] = averages of dose-response metrics across the panel
[10] = averages over 11 cell lines, minimal fold differences

`COCCOCCOCCOCCOCCOCCSSCCNCCCN.O=C(O)C(F)(F)F.O=C(O)C(F)(F)F` [1LP65, m-PEG6-S-S-WR1065] was tested, and the GI50 [1, 2] was 41.8 ± 5.9 µM, the IC50 [1, 2] was 52.4 ± 4.8 µM and the LC99 [1, 2] was 135 ± 6.6 µM. For the same compound, the TGI [1, 2] was 76.4 ± 9.2 µM and 76.4 µM, the CC50 ([1]; 48-h treatment, amifostine ND = not definable up to 500 µM, read-out: LC50 (the source's name)) was 110 ± 4.7 µM and the “Dose reduction value AMF ÷ 1LP65” value ([1]; at GI50) was 5.8 fold. For the same compound, the CC50 (A549 NSCLC cells) was 155 ± 8 µM, the GI50 (A549 NSCLC cells) was 52.3 µM and 52 µM and the IC50 (A549 NSCLC cells) was 66.6 ± 7.9 µM. The LC99 (A549 NSCLC cells) was 187 ± 11 µM, the TGI (A549 NSCLC cells) was 126 ± 3 µM and 126 µM and the “Dose reduction value AMF ÷ 1LP65” value (A549 NSCLC cells; at GI50) was 5.5 fold. For the same compound, the “Dose reduction value AMF ÷ 1LP65” value (A549 NSCLC cells; at IC50) was 4.4 fold, the GI50 (A549 NSCLC cells; [3]) was 17.1 µM and the IC50 (A549 NSCLC cells; [3]) was 33.1 µM. It also gave a GI50 (A549 NSCLC cells; [4]) of 38.6 µM, an IC50 (A549 NSCLC cells; [4]) of 51 µM and a GI50 (Ovary SKOV3 cells; [2]) of 40.9 ± 0.5 µM. For the same compound, the IC50 (Ovary SKOV3 cells; [2]) was 45.5 ± 2.5 µM, the LC99 (Ovary SKOV3 cells; [2]) was 98.9 ± 8.6 µM and the TGI (Ovary SKOV3 cells; [2]) was 50.3 ± 2.0 µM and 50.3 µM. The “Dose reduction value AMF ÷ 1LP65” value (Ovary SKOV3 cells; at GI50) was 2.0 fold, the “Dose reduction value AMF ÷ 1LP65” value (Ovary SKOV3 cells; at IC50) was 6.5 fold and the CC50 (Ovary SKOV3 cells; [5]) was 68.8 ± 1.8 µM. It also gave a GI50 (Ovary TOV21G cells; [2]) of 21.3 ± 3.8 µM, an IC50 (Ovary TOV21G cells; [2]) of 26.3 ± 3.6 µM and an LC99 (Ovary TOV21G cells; [2]) of 92.0 ± 2.8 µM. For the same compound, the TGI (Ovary TOV21G cells; [2]) was 32.7 ± 6.2 µM, the “Dose reduction value AMF ÷ 1LP65” value (Ovary TOV21G cells; at GI50) was 2.2 fold and the “Dose reduction value AMF ÷ 1LP65” value (Ovary TOV21G cells; at IC50) was 1.6 fold. It also gave a CC50 (Ovary TOV21G cells; [5]) of 51.3 ± 12.2 µM, a GI50 (Prostate LNCaP cells; [2]) of 28.3 ± 1.9 µM and an IC50 (Prostate LNCaP cells; [2]) of 44.3 ± 2.8 µM. The LC99 (Prostate LNCaP cells; [2]) was 114 ± 8.4 µM, the TGI (Prostate LNCaP cells; [2]) was 51.7 ± 3.8 µM and the “Dose reduction value AMF ÷ 1LP65” value (Prostate LNCaP cells; at GI50) was 5.3 fold. For the same compound, the “Dose reduction value AMF ÷ 1LP65” value (Prostate LNCaP cells; at IC50) was 8.5 fold, the CC50 (Prostate LNCaP cells; [5]) was 88.8 ± 7.1 µM and the GI50 (Prostate PC3 cells; [2]) was 22.9 ± 1.8 µM. For the same compound, the IC50 (Prostate PC3 cells; [2]) was 37.5 ± 4.6 µM, the LC99 (Prostate PC3 cells; [2]) was 86.3 ± 8.9 µM and the TGI (Prostate PC3 cells; [2]) was 40.5 ± 2.8 µM and 40.5 µM. For the same compound, the “Dose reduction value AMF ÷ 1LP65” value (Prostate PC3 cells; at GI50) was 2.3 fold, the “Dose reduction value AMF ÷ 1LP65” value (Prostate PC3 cells; at IC50) was 2.8 fold and the “Dose reduction value AMF ÷ 1LP65” value (Prostate PC3 cells; at TGI) was 7.4 fold. The CC50 (Prostate PC3 cells; [5]) was 60 ± 1.1 µM, the “fold greater effect than amifostine” value (human cancer cell lines) was 2.1 fold and the “LC99, All cell lines” value (human cancer cell lines; [6]) was 126 ± 15.8 µM. The “TGI, All cell lines” value (human cancer cell lines; [6]) was 69.3 ± 10.3 µM, the “LC99, range for individual cell lines” value (human cancer cell lines; [7]) was 83.5 to 234 µM and the “TGI, range for individual cell lines” value (human cancer cell lines; [7]) was 32.7 to 126 µM. The “fold lower concentrations in TP53-mutant compared to TP53 wild-type cell lines” value (human cancer cell lines; H1437 and TOV21G excluded, across dose-response metrics) was ~ 1.8 fold, the “LC99, TP53 Wild-Type” value (human cancer cell lines; average of A549, H460, LNCaP) was 161 ± 20.4 µM and the “TGI, TP53 Wild-Type” value (human cancer cell lines; average of A549, H460, LNCaP) was 101 ± 20.1 µM. The “LC99, TP53 Mutant” value (human cancer cell lines; [8]) was 95.1 ± 9.9 µM, the “TGI, TP53 Mutant” value (human cancer cell lines; [8]) was 52.0 ± 7.3 µM and the “fold more potent than amifostine as a cytostatic agent, average” value (human cancer cell lines; [9]) was 5.9 fold. For the same compound, the “fold more potent than amifostine as a cytostatic agent, range” value (human cancer cell lines; [9]) was 5.0- to 6.4 fold, the “Fold difference in drug potency vs amifostine: GI50” value (human cancer cell lines; [10]) was over 5.0 and the “Fold difference in drug potency vs amifostine: IC50” value (human cancer cell lines; [10]) was over 6.4. For the same compound, the “Fold difference in drug potency vs amifostine: TGI” value (human cancer cell lines; [10]) was over 6.3, the GI50 (human cancer cell lines; read-out: GI50, All cell lines, 1LP65: average across 11 cell lines, 48 h) was 41.2 ± 5.4 µM and the GI50 (human cancer cell lines; read-out: GI50, TP53 Mutant, average of HCC38, MDA-MB-231, H1975, DU145, PC3) was 33.3 ± 3.7 µM. For the same compound, the GI50 (human cancer cell lines; read-out: GI50, TP53 Wild-Type, average of A549, H460, LNCaP) was 52.7 ± 12.4 µM, the GI50 (human cancer cell lines; read-out: GI50, range for individual cell lines, 15 cell lines for 4SP65, 11 for 1LP65) was 21.3 to 77.7 µM and the CC50 (human cancer cell lines; read-out: LC50, All cell lines, 1LP65: average across 11 cell lines, 48 h) was 94.6 ± 12.8 µM. The CC50 (human cancer cell lines; read-out: LC50, TP53 Mutant, average of HCC38, MDA-MB-231, H1975, DU145, PC3) was 72.9 ± 9.5 µM, the CC50 (human cancer cell lines; read-out: LC50, TP53 Wild-Type, average of A549, H460, LNCaP) was 133 ± 19.1 µM and the CC50 (human cancer cell lines; read-out: LC50, range for individual cell lines, 15 cell lines for 4SP65, 11 for 1LP65) was 51.3 to 157 µM. The GI50 (human cancer cell lines; read-out: average GI50) was 30.4 µM.
